pIC50: −log10 of the molar value. Calls of active or inactive are those of the source. The rule behind the calls is not given here.
Legend:
[1] = Antiproliferative activity against human U87MG cells after 72 hrs by MTT assay; format: functional, cell-based, U-87MG ATCC; settings: U-87 MG
[2] = Antiproliferative activity against human HCT116 cells after 72 hrs by MTT assay; format: functional, cell-based; settings: HCT-116, 72 h
[3] = tested on: MCF7; test: Antiproliferative activity against human MCF7 cells after 72 hrs by MTT assay; format: functional, cell-based; settings: MCF7, 72 h
[4] = tested on: HeLa; test: Antiproliferative activity against human HeLa cells after 72 hrs by MTT assay; format: functional, cell-based
[5] = tested on: MCF7; test: Antiproliferative activity against human MCF7 cells assessed as inhibitory ratio at 10 uM after 72 hrs by MTT assay; format: functional; settings: MCF7, 72 h
[6] = tested on: A549; test: Antiproliferative activity against human A549 cells after 72 hrs by MTT assay; format: functional, cell-based; settings: A549, 72 h
[7] = Antiproliferative activity against human HCT116 cells assessed as inhibitory ratio at 10 uM after 72 hrs by MTT assay; format: functional; settings: HCT-116, 72 h
[8] = tested on: HCT-116; test: Inhibition of PI3K/Akt in human HCT116 cells assessed as Akt phosphorylation at 10 uM after 1 hr by Western blotting analysis; format: cell-based
[9] = tested on: HCT-116; test: Induction of apoptosis in human HCT116 cells assessed as cell shrinking and vacuolization, chromatin condensation and nuclear fragmentation after 24 hrs by Hoechst staining based phase contrast microscopy; format: functional

pIC50 [3]	pIC50 [4]	pIC50 [6]	SMILES	pIC50 [1]	pIC50 [2]	inhibition at 10 µM [5]	inhibition at 10 µM [7]	inhibition [8]	Activity [9]
5.28	< 4.70	4.95	NC(=O)c1cc(-c2nc(N3CCOCC3)nc(N3CCOCC3)n2)ccc1OCc1ccc(F)cc1	5.40	5.54	54.9%	66.9%	–	–
–	–	–	CS(=O)(=O)N1CCC(Nc2nc(-c3cc(C(N)=O)cc(C(F)(F)F)c3)nc(N3CCOCC3)n2)CC1	–	–	30.9%	42.9%	–	–
–	–	–	COc1cc(C(N)=O)cc(-c2nc(N3CCOCC3)nc(N3CCOCC3)n2)c1	–	–	42.2%	41.2%	–	–
–	–	–	CS(=O)(=O)N1CCN(c2nc(-c3cc(C(N)=O)cc(C(F)(F)F)c3)nc(N3CCOCC3)n2)CC1	–	–	47.4%	19.4%	–	–
–	–	–	CN(CCCC(=O)N1CCN(S(C)(=O)=O)CC1)c1nc(-c2cc(C(N)=O)cc(C(F)(F)F)c2)nc(N2CCOCC2)n1	–	–	37.7%	40.8%	–	–
5.66	5.09	5.43	NC(=O)c1cc(O)cc(-c2nc(N3CCOCC3)nc(N3CCOCC3)n2)c1	5.49	5.92	65.8%	77.9%	–	–
–	–	–	NC(=O)c1cc(-c2nc(N3CCOCC3)nc(N3CCOCC3)n2)ccc1OCc1cccc(F)c1	–	–	26.2%	35.9%	–	–
–	–	–	NC(=O)c1cccc(-c2nc(N3CCOCC3)nc(N3CCOCC3)n2)c1	–	–	38%	51.1%	–	–
–	–	–	NC(=O)c1cc(OCc2ccccc2)cc(-c2nc(N3CCOCC3)nc(N3CCOCC3)n2)c1	–	–	32.5%	31.6%	–	–
–	–	–	COC(=O)c1cc(-c2nc(N3CCOCC3)nc(N3CCOCC3)n2)cc(C(F)(F)F)c1	–	–	37.2%	40%	–	–
6.00	5.36	5.68	Nc1cc(C(F)(F)F)c(-c2cc(N3CCOCC3)nc(N3CCOCC3)n2)cn1 [BUPARLISIB]	5.79	6.32	84%	89.5%	Active	–
–	–	–	NC(=O)c1cc(-c2nc(NCC(=O)N3CCOCC3)nc(N3CCOCC3)n2)cc(C(F)(F)F)c1	–	–	30.3%	29.2%	–	–
5.67	5.15	5.63	CN(c1nc(-c2cc(C(N)=O)cc(C(F)(F)F)c2)nc(N2CCOCC2)n1)C1CCN(S(C)(=O)=O)CC1	5.33	5.71	61.7%	72%	–	–
–	–	–	NC(=O)c1cc(-c2nc(N3CCOCC3)nc(N3CCOCC3)n2)ccc1OCc1ccccc1	–	–	31.2%	29.9%	–	–
–	–	–	CS(=O)(=O)NC1CCN(c2nc(-c3cc(C(N)=O)cc(C(F)(F)F)c3)nc(N3CCOCC3)n2)CC1	–	–	49.3%	19%	–	–
–	–	–	CN(CCCC(=O)N1CCOCC1)c1nc(-c2cc(C(N)=O)cc(C(F)(F)F)c2)nc(N2CCOCC2)n1	–	–	38.5%	44.8%	–	–
–	–	–	NC(=O)c1cc(-c2nc(N3CCOCC3)nc(N3CCOCC3)n2)ccc1O	–	–	32.7%	31.7%	–	–
5.30	5.09	5.08	NC(=O)c1cc(-c2nc(N3CCOCC3)nc(N3CCOCC3)n2)cc(C(F)(F)F)c1	4.95	5.61	59.3%	71.4%	–	–
5.90	5.32	5.63	NC(=O)c1cc(OC(F)(F)F)cc(-c2nc(N3CCOCC3)nc(N3CCOCC3)n2)c1	5.82	6.05	70.7%	89.3%	Active	Dose-dependent effect
–	–	–	COc1ccc(-c2nc(N3CCOCC3)nc(N3CCOCC3)n2)cc1C(N)=O	–	–	36.2%	40.4%	–	–
–	–	–	NC(=O)c1cc(-c2nc(N3CCOCC3)nc(N3CCOCC3)n2)ccc1Cl	–	–	34.4%	35.6%	–	–
–	–	–	CS(=O)(=O)N1CCN(C(=O)CNc2nc(-c3cc(C(N)=O)cc(C(F)(F)F)c3)nc(N3CCOCC3)n2)CC1	–	–	19.3%	29.8%	–	–
–	–	–	O=C(O)c1cc(-c2nc(N3CCOCC3)nc(N3CCOCC3)n2)cc(C(F)(F)F)c1	–	–	34.4%	44.9%	–	–
–	–	–	CN1CCN(c2nc(-c3cc(C(N)=O)cc(C(F)(F)F)c3)nc(N3CCOCC3)n2)CC1	–	–	40.2%	36.2%	–	–

Reference: ChEMBL document CHEMBL3399917, “Design, synthesis and antiproliferative activity evaluation of m-(4-morpholinyl-1,3,5-triazin-2-yl)benzamides in vitro” (Bioorg Med Chem Lett, 2015)
